In patent US12473250B2, “Molecular design of new antibiotics and antibiotic adjuvants against MCR strains” (priority 2019, dated 2025):

System: various pathogens
Test: organism not typed
Format: cell-based
Protocol: The MICs of the individual drugs and LC compound in combinations were determined using the broth microdilution technique as recommended by the CLSI whereby the two anti-microbial agents were added in an equal amount. (e.g.: 50 μL of Colistin: 50 μL of LC compounds). Diluted media containing compounds and antibiotics will be serially diluted 2-fold, and LC compounds and antibiotics alone or in combination will be assayed at fixed synergy concentration. In all cases, the lowest concentration at which no visible growth occurred was be recorded to be the MIC value of individual and combined antibacterial agents. The results were obtained after 24 hours of incubation.
Using the combination of LC100 and colistin, the activity of a broad range of strains was further tested (Table 7).

## Colistin
E. Coli CRE 17528
  FOLD CHANGES [Absorbance (abs; OD 600 nm)] No Treatment [Bacteria alone]: MIC Colistin: 20.21
  MIC: 0.78 µg/mL
E. Coli CRE 19211
  FOLD CHANGES [Absorbance (abs; OD 600 nm)] No Treatment [Bacteria alone]: Colistin 0.5 μg: 1.17
  FOLD CHANGES [Absorbance (abs; OD 600 nm)] No Treatment [Bacteria alone]: MIC Colistin: 20.56
  MIC: 1.56 µg/mL
E. Coli CRE 34685
  FOLD CHANGES [Absorbance (abs; OD 600 nm)] No Treatment [Bacteria alone]: Colistin 0.5 μg: 1.49
  FOLD CHANGES [Absorbance (abs; OD 600 nm)] No Treatment [Bacteria alone]: MIC Colistin: 22.63
  MIC: 0.78 µg/mL
E. Coli DB 16027R
  FOLD CHANGES [Absorbance (abs; OD 600 nm)] No Treatment [Bacteria alone]: Colistin 0.5 μg: 1.23
  FOLD CHANGES [Absorbance (abs; OD 600 nm)] No Treatment [Bacteria alone]: MIC Colistin: 14.89
  MIC: 0.78 µg/mL
KLPN ATCC 4352
  FOLD CHANGES [Absorbance (abs; OD 600 nm)] No Treatment [Bacteria alone]: Colistin 0.5 μg: 1.81
  FOLD CHANGES [Absorbance (abs; OD 600 nm)] No Treatment [Bacteria alone]: MIC Colistin: 3.54
  MIC: 0.78 µg/mL
KLPN ATCC 10031
  FOLD CHANGES [Absorbance (abs; OD 600 nm)] No Treatment [Bacteria alone]: Colistin 0.5 μg: 1.25
  FOLD CHANGES [Absorbance (abs; OD 600 nm)] No Treatment [Bacteria alone]: MIC Colistin: 10.11
  MIC: 1.56 µg/mL
KLPN ATCC 27736
  FOLD CHANGES [Absorbance (abs; OD 600 nm)] No Treatment [Bacteria alone]: Colistin 0.5 μg: 1.21
  FOLD CHANGES [Absorbance (abs; OD 600 nm)] No Treatment [Bacteria alone]: MIC Colistin: 9.67
  MIC: 0.78 µg/mL
KLPN ATCC 35657
  FOLD CHANGES [Absorbance (abs; OD 600 nm)] No Treatment [Bacteria alone]: Colistin 0.5 μg: 1.57
  FOLD CHANGES [Absorbance (abs; OD 600 nm)] No Treatment [Bacteria alone]: MIC Colistin: 13.49
  MIC: 1.56 µg/mL
KLPN ATCC 700603
  FOLD CHANGES [Absorbance (abs; OD 600 nm)] No Treatment [Bacteria alone]: Colistin 0.5 μg: 1.11
  FOLD CHANGES [Absorbance (abs; OD 600 nm)] No Treatment [Bacteria alone]: MIC Colistin: 9.64
  MIC: 1.56 µg/mL
KLPN CRE 7955
  FOLD CHANGES [Absorbance (abs; OD 600 nm)] No Treatment [Bacteria alone]: Colistin 0.5 μg: 1.64
  FOLD CHANGES [Absorbance (abs; OD 600 nm)] No Treatment [Bacteria alone]: MIC Colistin: 10.28
  MIC: 1.56 µg/mL
KLPN CRE 15588
  FOLD CHANGES [Absorbance (abs; OD 600 nm)] No Treatment [Bacteria alone]: Colistin 0.5 μg: 2.50
  FOLD CHANGES [Absorbance (abs; OD 600 nm)] No Treatment [Bacteria alone]: MIC Colistin: 7.39
  MIC: 0.78 µg/mL
KLPN CRE 16260
  FOLD CHANGES [Absorbance (abs; OD 600 nm)] No Treatment [Bacteria alone]: Colistin 0.5 μg: 1.06
  MIC: >50 µg/mL
KLPN CRE 27025
  FOLD CHANGES [Absorbance (abs; OD 600 nm)] No Treatment [Bacteria alone]: Colistin 0.5 μg: 5.24
  FOLD CHANGES [Absorbance (abs; OD 600 nm)] No Treatment [Bacteria alone]: MIC Colistin: 11.84
  MIC: 0.78 µg/mL
KLPN CRE 55301
  FOLD CHANGES [Absorbance (abs; OD 600 nm)] No Treatment [Bacteria alone]: Colistin 0.5 μg: 1.09
  FOLD CHANGES [Absorbance (abs; OD 600 nm)] No Treatment [Bacteria alone]: MIC Colistin: 9.00
  MIC: 0.78 µg/mL
PAE ATCC 9027
  FOLD CHANGES [Absorbance (abs; OD 600 nm)] No Treatment [Bacteria alone]: Colistin 0.5 μg: 0.98
  FOLD CHANGES [Absorbance (abs; OD 600 nm)] No Treatment [Bacteria alone]: MIC Colistin: 8.80
  MIC: 1.56 µg/mL
PAE ATCC 9721
  FOLD CHANGES [Absorbance (abs; OD 600 nm)] No Treatment [Bacteria alone]: Colistin 0.5 μg: 1.01
  FOLD CHANGES [Absorbance (abs; OD 600 nm)] No Treatment [Bacteria alone]: MIC Colistin: 5.80
  MIC: 1.56 µg/mL
PAE ATCC 15442
  FOLD CHANGES [Absorbance (abs; OD 600 nm)] No Treatment [Bacteria alone]: Colistin 0.5 μg: 1.03
  FOLD CHANGES [Absorbance (abs; OD 600 nm)] No Treatment [Bacteria alone]: MIC Colistin: 14.00
  MIC: 1.56 µg/mL
PAE ATCC 27853
  FOLD CHANGES [Absorbance (abs; OD 600 nm)] No Treatment [Bacteria alone]: Colistin 0.5 μg: 0.96
  FOLD CHANGES [Absorbance (abs; OD 600 nm)] No Treatment [Bacteria alone]: MIC Colistin: 8.35
  MIC: 0.78 µg/mL
PAE ATCC BAA-1744
  FOLD CHANGES [Absorbance (abs; OD 600 nm)] No Treatment [Bacteria alone]: Colistin 0.5 μg: 1.11
  FOLD CHANGES [Absorbance (abs; OD 600 nm)] No Treatment [Bacteria alone]: MIC Colistin: 6.81
  MIC: 1.56 µg/mL
PAE DM 4150
  FOLD CHANGES [Absorbance (abs; OD 600 nm)] No Treatment [Bacteria alone]: Colistin 0.5 μg: 1.02
  FOLD CHANGES [Absorbance (abs; OD 600 nm)] No Treatment [Bacteria alone]: MIC Colistin: 10.34
  MIC: 3.125 µg/mL
PAE DM 23155
  FOLD CHANGES [Absorbance (abs; OD 600 nm)] No Treatment [Bacteria alone]: Colistin 0.5 μg: 1.30
  FOLD CHANGES [Absorbance (abs; OD 600 nm)] No Treatment [Bacteria alone]: MIC Colistin: 7.00
  MIC: 1.56 µg/mL
PAE DM 23257
  FOLD CHANGES [Absorbance (abs; OD 600 nm)] No Treatment [Bacteria alone]: Colistin 0.5 μg: 1.02
  FOLD CHANGES [Absorbance (abs; OD 600 nm)] No Treatment [Bacteria alone]: MIC Colistin: 7.71
  MIC: 1.56 µg/mL
PAE DM 23376
  FOLD CHANGES [Absorbance (abs; OD 600 nm)] No Treatment [Bacteria alone]: Colistin 0.5 μg: 0.93
  FOLD CHANGES [Absorbance (abs; OD 600 nm)] No Treatment [Bacteria alone]: MIC Colistin: 8.00
  MIC: 1.56 µg/mL
PAE DR 4877
  FOLD CHANGES [Absorbance (abs; OD 600 nm)] No Treatment [Bacteria alone]: Colistin 0.5 μg: 1.30
  FOLD CHANGES [Absorbance (abs; OD 600 nm)] No Treatment [Bacteria alone]: MIC Colistin: 12.00
  MIC: 1.56 µg/mL
PAE DR 5790
  FOLD CHANGES [Absorbance (abs; OD 600 nm)] No Treatment [Bacteria alone]: Colistin 0.5 μg: 1.06
  FOLD CHANGES [Absorbance (abs; OD 600 nm)] No Treatment [Bacteria alone]: MIC Colistin: 10.25
  MIC: 0.78 µg/mL
PAE DU 14476
  FOLD CHANGES [Absorbance (abs; OD 600 nm)] No Treatment [Bacteria alone]: Colistin 0.5 μg: 0.90
  FOLD CHANGES [Absorbance (abs; OD 600 nm)] No Treatment [Bacteria alone]: MIC Colistin: 7.21
  MIC: 1.56 µg/mL
